In patent publication US20190201578A1, “Biomaterial Implant” (The Johns Hopkins University, priority 2017, published 2019):

Experiments:
[1] = cited from earlier work
rat cornea wound [2] = test: cornea wound healing in the presence of therapeutics; conditions: for time to heal: wounds 3.5 mm in diameter that normally took 48 hours or more
Experimental: Furthermore, the epithelial wounds were manually made using a biopsy punch. To replicate a more traumatic cornea wound that penetrates both the epithelium and stroma, a Nidek EC-5000 excimer laser was used. The laser settings to obtain circular wounds were 2 mm in diameter and approximately 100 μm deep. We confirmed wound depth using optical coherence tomography (OCT). […] The laser application was performed by first chilling eyes in a saline ice bath prior to wounding, and then applying the laser in 10 second bursts, with 5 second rest in between to minimize laser damage outside the wound. […] The dynamic time course of the electric signal change in the hours after wounding was also similar to that of shallower wounds (see FIG. 9). Normal epithelial wounds 2 mm in diameter heal almost completely in 48 hours. Deep laser wounds took longer to heal than shallow epithelial wounds, but did heal 100% by day 8 (see FIG. 10).
(§1) Wounds 3.5 mm in diameter that normally took 48 hours or more to completely heal were healed in 30 hours in the presence of these therapeutics. To ensure that the aminophylline has the same effect on deep wounds as shallow epithelial wounds, wound electric fields were measured using the vibrating probe with and without the presence of 1 and 10 mM aminophylline. FIG. 11 illustrates the presence of aminophylline in the wound.
FIG. 12 illustrates wound healing of a deep wound (100 μm) without and with the presence of 1 mM aminophylline as function of time. In this regard, at 500, deep wound healing with and without the presence of aminophylline are shown. At 520, an OCT image of the control wound is shown. At 540, an OCT image with the presence of aminophylline in the wound is shown.
Furthermore, FIG. 13 illustrates the percentage of wound healing as a function of time for corneas treated with the bioelectric modulator aminophylline (1 mM).

rat cornea wound [3] = test: cornea wound electric current and ion flux measured with vibrating probe; conditions: for cornea wound electric signal: 10 mM
Experimental: In order to understand corneal wound healing, the spatiotemporal dynamics of rat cornea wound electric currents and ion flux using a vibrating probe were characterized. In particular, measurements of deeper wounds of approximately 100 microns in depth, penetrating the stroma, were analyzed. For both shallow and deep wounds, electric current and ion flux were maximized at the wound edge, minimized at the wound center, and reduced to normal (unwounded) values at a small distance outside the wound. Wound electric current was outward (i.e., outward transient outward flux of potassium which diminished rapidly and therefore appeared to be leakage). Small fluxes of calcium and sodium were also observed. The main ion flux appeared to be a large influx of chloride ions at the wound edge. Time lapse measurements of electric current in the hours after wounding indicate that the wound electric signal was long-lasting and appears to be actively-regulated. The wound electric signal increased rapidly until approximately 40 minutes after wounding and was maintained at a high level for several hours. FIGS. 9 and 10 show time lapse data for both a shallow (normal epithelial) wound and a deep (stromal) wound. In this regard, electric signals for a shallow depth wound and a deep wound were compared.
Furthermore, the epithelial wounds were manually made using a biopsy punch. To replicate a more traumatic cornea wound that penetrates both the epithelium and stroma, a Nidek EC-5000 excimer laser was used. The laser settings to obtain circular wounds were 2 mm in diameter and approximately 100 μm deep. We confirmed wound depth using optical coherence tomography (OCT). […] The laser application was performed by first chilling eyes in a saline ice bath prior to wounding, and then applying the laser in 10 second bursts, with 5 second rest in between to minimize laser damage outside the wound. […]
as §1, with “FIG. 11 illustrates the presence of aminophylline in the wound.” left out
The effects of two distinct rehydrated collagen membranes (with a nominal thickness of 100 μm) on cornea wound electric signal were characterized. […] As the probe was moved away from the source of electric signal, the current detected fell exponentially.
The effect of physical presence of collagen membrane and probe distance from wound edge on the electric signal was tested. The probe was placed in measuring position as close as possible to the wound edge with the collagen membrane, and the electric signal was recorded. […]

Row | Structure (SMILES) | log partition (log P) coefficient value [1] | cornea wound healing (rat cornea wound [2]) | wound healing of a deep wound (OCT) (rat cornea wound [2]; deep wound 100 μm, 1 mM, FIG. 12) | time to heal (rat cornea wound [2]) [h] | chloride flux at the wound (rat cornea wound [3]) | cornea wound electric signal (rat cornea wound [3]) | wound electric field (rat cornea wound [3]; deep wounds, 1 and 10 mM, FIG. 11)
1 | Cn1c(=O)c2[nH]cnc2n(C)c1=O [aminophylline] | −3.03 | significantly enhanced | faster than a control | 30 | significantly increases | significantly increase | increase in the wound electric field
2 | O=C1O[C@H]([C@@H](O)CO)C(O)=C1O [ascorbic acid] |  | significantly enhanced |  | 30 |  | significantly increase | 
